Reference: patent US12280088B2, “Dry powder formulation of caveolin-1 peptides and methods of use thereof” (BOARD OF REGENTS, THE UNIVERSITY OF TEXAS SYSTEM, priority 2018, dated 2025)
Converted amounts (≈) assume the structure as drawn. Read-outs that look alike come from different tables or passages of the source. Square brackets hold non-standard residues; d marks the D form. Peptide text beside a SMILES is read from it. Orn = NCCC[C@H](N)C(=O)O

Key:
[1] = pH-solubility of polypeptide variants; assay type: physicochemical; conditions: read-out: pH-solubility, Concentration; for solubility thermodynamic at 3 min: a: precipitate, supernatant assayed; for solubility at 3 min: b: high viscous solution, aliquot assayed
Method: (§1) Solubility study of variants was performed by adding variants powders into solvent in concentration of 5 mg/ml and then vortexing for 3 min. Observe the appearance of solutions in 5 min. Add more powder (˜5 mg/ml each time) and repeat vortex and observe until precipitation or gelation occurs.

[2] = Appearance of solutions in solubility study of variants; assay type: physicochemical
Method: as §1

| SMILES | solubility thermodynamic at 3 min ([1]; pH 4.5) | solubility thermodynamic at 3 min ([1]; pH 5.5) | solubility thermodynamic at 3 min ([1]; pH 6.5) | solubility thermodynamic at 3 min ([1]; pH 7.5) | solubility thermodynamic at 3 min ([1]; pH 8.5) | Appearance of solutions ([2]; pH 4.5, 5 mg/ml) | Appearance of solutions ([2]; pH 4.5, 10 mg/ml) | Appearance of solutions ([2]; pH 4.5, 15 mg/ml) | Appearance of solutions ([2]; pH 4.5, 20 mg/ml) | Appearance of solutions ([2]; pH 4.5, 25 mg/ml) | Appearance of solutions ([2]; pH 7.5, 5 mg/ml) | Appearance of solutions ([2]; pH 7.5, 10 mg/ml) | Appearance of solutions ([2]; pH 8.5, 5 mg/ml) | Appearance of solutions ([2]; pH 8.5, 10 mg/ml) | solubility at 3 min ([1]; pH 4.5) | Appearance of solutions ([2]; pH 4.5, 40 mg/ml) | Appearance of solutions ([2]; pH 7.5, 15 mg/ml) | Appearance of solutions ([2]; pH 7.5, 20 mg/ml) | Appearance of solutions ([2]; pH 8.5, 15 mg/ml) | Appearance of solutions ([2]; pH 8.5, 20 mg/ml) | other results |
| --- | --- | --- | --- | --- | --- | --- | --- | --- | --- | --- | --- | --- | --- | --- | --- | --- | --- | --- | --- | --- | --- |
| CC(C)[C@H](NC(=O)[C@@H](NC(=O)[C@H](Cc1ccccc1)NC(=O)[C@@H](NC(=O)[C@@H](NC(=O)[C@H](Cc1ccccc1)NC(=O)[C@H](CO)NC(=O)[C@H](C)NC(=O)[C@@H](N)CCCCN)[C@@H](C)O)[C@@H](C)O)[C@@H](C)O)C(=O)N[C@H](C(=O)N[C@@H](CCCCN)C(=O)NCC(=O)N[C@@H](CO)C(=O)O)[C@@H](C)O [SEQ ID NO.4] (H-KASFTTFTVTKGS-OH) | 25.4 ± 0.8 mg/mL (≈ 18.5 mM) | 4 ± 0.2 mg/mL (≈ 2.91 mM) | 5.9 ± 0.4 mg/mL (≈ 4.29 mM) | 16.7 ± 0.5 mg/mL (≈ 12.1 mM) | 10.8 ± 1.1 mg/mL (≈ 7.86 mM) | Clear | Clear | Clear | Clear | Clear | Clear | Clear | Clear | Clear |  |  |  |  |  |  |  |
| CC(C)[C@H](NC(=O)[C@@H](NC(=O)[C@H](Cc1ccccc1)NC(=O)[C@@H](NC(=O)[C@@H](NC(=O)[C@H](Cc1ccccc1)NC(=O)[C@H](CO)NC(=O)[C@H](C)NC(=O)[C@H](CCCCN)NC(=O)CNC(=O)[C@H](CCC(=O)O)NC(=O)[C@@H](C)NC(=O)[C@@H](C)N)[C@@H](C)O)[C@@H](C)O)[C@@H](C)O)C(=O)N[C@H](C(=O)N[C@@H](CCCCN)C(=O)NCC(=O)N[C@@H](CO)C(=O)N[C@H](C)C(=O)N[C@H](C)C(N)=O)[C@@H](C)O [SEQ ID NO.7] (H-[dA][dA]EGKASFTTFTVTKGS[dA][dA]-NH2) |  | 22.3 ± 0.1 mg/mL (≈ 12.1 mM) |  |  |  | Clear | Clear | Clear | Clear | Clear | Clear | Clear | Clear | Clear | ≥ 32 mg/mL | Gel | Clear | Clear | Clear | Clear | solubility at 3 min ([1]; pH 6.5): ≥ 30.5 mg/mL; solubility at 3 min ([1]; pH 7.5): ≥ 35.3 mg/mL; solubility at 3 min ([1]; pH 8.5): ≥ 23.8 mg/mL; Appearance of solutions ([2]; pH 5.5, 5 mg/ml): Clear; Appearance of solutions ([2]; pH 5.5, 10 mg/ml): Clear; Appearance of solutions ([2]; pH 5.5, 15 mg/ml): Clear; Appearance of solutions ([2]; pH 7.5, 25 mg/ml): Clear; Appearance of solutions ([2]; pH 8.5, 25 mg/ml): Clear |
| CC(=O)N[C@H](C)C(=O)N[C@H](C)C(=O)N[C@@H](CCC(=O)O)C(=O)NCC(=O)N[C@@H](CCCCN)C(=O)N[C@@H](C)C(=O)N[C@@H](CO)C(=O)N[C@@H](Cc1ccccc1)C(=O)N[C@H](C(=O)N[C@H](C(=O)N[C@@H](Cc1ccccc1)C(=O)N[C@H](C(=O)N[C@H](C(=O)N[C@H](C(=O)N[C@@H](CCCCN)C(=O)NCC(=O)N[C@@H](CO)C(=O)N[C@H](C)C(=O)N[C@H](C)C(N)=O)[C@@H](C)O)C(C)C)[C@@H](C)O)[C@@H](C)O)[C@@H](C)O [SEQ ID NO.8] (Ac-[dA][dA]EGKASFTTFTVTKGS[dA][dA]-NH2) |  | 23.6 ± 0.6 mg/mL (≈ 12.5 mM) | 27.3 ± 1.2 mg/mL (≈ 14.5 mM) | 28.3 ± 2.2 mg/mL (≈ 15 mM) | 20.6 ± 2.4 mg/mL (≈ 10.9 mM) | Clear | Clear | Clear | Clear | Gel | Clear | Clear | Clear | Clear | ≥ 24.2 mg/mL |  | Clear |  | Clear | Clear | Appearance of solutions ([2]; pH 5.5, 5 mg/ml): Clear |
| CC(C)[C@H](NC(=O)[C@@H](NC(=O)[C@H](Cc1ccccc1)NC(=O)[C@@H](NC(=O)[C@@H](NC(=O)[C@H](Cc1ccccc1)NC(=O)[C@H](CO)NC(=O)[C@H](C)NC(=O)[C@@H](N)CCCN)[C@@H](C)O)[C@@H](C)O)[C@@H](C)O)C(=O)N[C@H](C(=O)N[C@@H](CCCN)C(=O)N[C@@H](CO)C(N)=O)[C@@H](C)O [SEQ ID NO.10, OASFTTFTVTOS-NH2] (H-[Orn]ASFTTFTVT[Orn]S-NH2) | 33.9 ± 0.9 mg/mL (≈ 26.3 mM) | 3.6 ± 0.8 mg/mL (≈ 2.79 mM) | 5.5 ± 0.7 mg/mL (≈ 4.27 mM) | 19.1 ± 0.1 mg/mL (≈ 14.8 mM) | 14.6 ± 1.6 mg/mL (≈ 11.3 mM) | Clear | Clear | Clear | Clear | Clear | Clear | Clear | Clear | Clear |  |  | Clear | Clear | Clear |  |  |
| CC[C@H](C)[C@H](NC(=O)CNC(=O)[C@@H](N)CC(=O)O)C(=O)N[C@@H](Cc1c[nH]c2ccccc12)C(=O)N[C@@H](CCCCN)C(=O)N[C@@H](C)C(=O)N[C@@H](CO)C(=O)N[C@@H](Cc1ccccc1)C(N)=O [SEQ ID NO.21] (H-DGIWKASF-NH2) | 0.62 ± 0.04 mg/mL (≈ 0.672 mM) | 0.14 ± 0.02 mg/mL (≈ 0.152 mM) | 0.26 ± 0.07 mg/mL (≈ 0.282 mM) | 0.25 ± 0.03 mg/mL (≈ 0.271 mM) | 0.17 ± 0.04 mg/mL (≈ 0.184 mM) |  |  |  |  |  |  |  |  |  |  |  |  |  |  |  |  |
| CC(C)[C@H](N)C(=O)N[C@H](C(=O)N[C@@H](CCCCN)C(=O)N[C@@H](Cc1ccc(O)cc1)C(=O)N[C@@H](Cc1c[nH]c2ccccc12)C(=O)N[C@@H](Cc1ccccc1)C(=O)N[C@@H](Cc1ccc(O)cc1)C(=O)N[C@@H](CCCNC(=N)N)C(N)=O)[C@@H](C)O [SEQ ID NO.22] (H-VTKYWFYR-NH2) | 57.2 ± 9.1 mg/mL (≈ 49.2 mM) | 2.98 ± 0.1 mg/mL (≈ 2.57 mM) | 3.49 ± 0.6 mg/mL (≈ 3.01 mM) | 61.5 ± 1.7 mg/mL (≈ 53 mM) | 29.1 ± 3.5 mg/mL (≈ 25.1 mM) | Clear | Clear | Clear | Clear | Clear | Clear | Clear | Clear | Clear |  | Clear | Clear | Clear | Clear | Clear | Appearance of solutions ([2]; pH 4.5, 30 mg/ml): Clear; Appearance of solutions ([2]; pH 4.5, 35 mg/ml): Clear; Appearance of solutions ([2]; pH 4.5, 45 mg/ml): Clear; Appearance of solutions ([2]; pH 4.5, 50 mg/ml): Clear; Appearance of solutions ([2]; pH 4.5, 55 mg/ml): Clear; Appearance of solutions ([2]; pH 4.5, 60 mg/ml): Clear; Appearance of solutions ([2]; pH 7.5, 25 mg/ml): Clear; Appearance of solutions ([2]; pH 7.5, 30 mg/ml): Clear; Appearance of solutions ([2]; pH 7.5, 35 mg/ml): Clear; Appearance of solutions ([2]; pH 7.5, 40 mg/ml): Clear; Appearance of solutions ([2]; pH 7.5, 45 mg/ml): Clear; Appearance of solutions ([2]; pH 7.5, 50 mg/ml): Clear; Appearance of solutions ([2]; pH 7.5, 55 mg/ml): Clear; Appearance of solutions ([2]; pH 7.5, 60 mg/ml): Clear; Appearance of solutions ([2]; pH 7.5, 65 mg/ml): Turbid |
